How the values were obtained:
[1] = test system: Pseudomonas aeruginosa, serotype 8; assay: Animal test of controlling local lesions and systemic symptoms caused by infection of microorganism; type: in vivo, rabbits; conditions: 10% aqueous solution i.v., 2 ml, 3 times per day, 3 days; for rabbits survived: of 10 rabbits
Experimental: 10 rabbits were used in tests. The rabbits were administered with a culture of Gram-negative bacteria (Pseudomonas aeruginosa, serotype 8, wherein the bacterial number in the culture is about 3×10^11) in a dose of 10 ml per day for consecutive 3 days. […] The rabbits were intravenously administered with N-acetyl-D-glucosamine (10% aqueous solution) a dose of 2 ml every time, 3 times per day, for consecutive 3 days. […] In the test group, all 10 rabbits survived, while in the control group, 8/10 rabbits of the control group died within one week, and only 2 rabbits survived.
When N-acetyl-D-glucosamine was replaced with N-acetyl-D-glucosamine hydrochloride in the tests (other conditions were not changed), 7/10 rabbits of test group survived.

[2] = test system: B16 tumor cells; assay: Cytological test of regulating micro-heterology variation; type: cell-based; conditions: final concentration 1 g/100 ml, incomplete 1640 media, cultured more than 48 hours
Experimental: Conventional incomplete 1640 culture media were used for cell culture, and B16 tumor cells (commercially obtained from the tumor cell library of Shanghai Institute of Cytobiology) were inoculated on said media. After being continuously cultured for more than 48 hours, the micro-heterology variation of cells and the control effects of N-acetyl-D-glucosamine thereon were observed under a condition where metabolic wastes affected the growth environment. […] The control cells cultured without N-acetyl-D-glucosamine could not proliferate on the same culture media under same conditions.

[3] = test system: B16 tumor cells; assay: Animal test of regulating micro-heterology variation (B16 tumor cells inoculated in rats); type: in vivo; conditions: of 50 rats; 5% aqueous solution i.p., 1 ml, 3 times per day, 7 days
Description: In control group without the administration of the compound of formula (1), many proliferative corpuscles appeared in at least 40 among 50 rats within 1-3 days after the tumor cells were inoculated; many immature cells appeared within 3-5 days; and visible solid tumors finally appeared within about 10 days.

[4] = test system: Proteus Mirabilis; assay: Promoting wave test (bio-wave model); type: cell-based; conditions: final concentration 0.5%, 37° C., 9 hours
Description: 1. Experimental Materials and Method: 1.1 Sample: Pure Compound of Formula (I) 1.2 Experimental Materials: • Strain: Proteus Mirabilis that meets the following biochemical reaction characteristics; dynamics (+), urease (+), lactose (−), glucose (+), H2S (−), phenylalanine deaminase (+). • Culture medium; modified LB culture medium (components: 1% tryptones, 0.5% yeast extract, 1% sodium chloride, 0.1% glucose, 0.002% TTC, and pH=7.2 to 7.4). 1.3 Experimental Method: • Control sample: the Proteus Mirabilis were inoculated at the center of LB plate, incubating at 37° C. for 9 hours; • Test sample: the compound of formula (I) with a final concentration of 0.5% was added to the LB plate, then the Proteus Mirabilis were inoculated by the same method, and cultured at 37° C. for 9 hours. 2. […] This wave-promoting function may explain the effects of using N-acetyl-D-glucosamine or pharmaceutically acceptable salts thereof for treating and controlling local lesions and systematic symptoms caused by infections of virus or bacteria.

[5] = in vivo
Description: The toxicological test of the compound of formula (I) includes: • 1. Acute toxicity test: including tests of oral administration, intravenous injection administration, and maximum limit amount for administration; • 2. Ames test; • 3. Micronucleus test of mouse bone marrow cell; • 4. Abnormality test of mouse sperm; • 5. Aberration test of mouse testis chromosome; • 6. Chronic lethal test; • 7. Sub-chronic toxicity (feed for 90 days) test; • 8. Traditional deformity-inducing test.

Structure (SMILES) | rabbits survived [1] | cell proliferation under metabolic waste conditions [2] | number of rats in which solid tumor did not appear [3] | bio-wave pattern of colony growth on LB plate [4] | dosage at which acute toxicosis reaction had not appeared [5] | inflammation of nasal mucosa and respiratory tract [1] | systemic toxic symptoms ([1]; after one week)
CC(=O)N[C@H]1C(O)O[C@H](CO)[C@@H](O)[C@@H]1O.Cl (stereo partly drawn) [N-acetyl-D-glucosamine hydrochloride] | 7/10 | – | – | – | – | – | –
CC(=O)N[C@@H]1[C@@H](O)[C@H](O)[C@@H](CO)O[C@H]1O [N-acetyl-D-glucosamine] | 10 rabbits | the cell number stably increased with the culture time | 45 rats | not only concentric rings with an interval of 3 hours, but also many fine waves on each ring | more than 2 g/kg | inflammations were alleviated | symptoms were alleviated
